Where two headings read alike, the source gives them in different places. Marks after values point to notes of the source that are not given here.
Experiments:
[1] = system: Murine leukaemia L1210; assay: In vitro cytotoxicity on murine leukaemia L1210 (Microculture Tetrazolium Assay)
Procedure: (§2) Murine leukaemia L1210 was used in vitro. The cells are cultured in RPMI 1640 complete culture medium containing 10% foetal calf serum, 2 mM glutamine, 50 units/ml of penicillin, 50 μg/ml of streptomycin and 10 mM Hepes, pH: 7.4. The cells are distributed on microplates and exposed to the cytotoxic compounds for 4 doubling periods, or 48 hours. The number of viable cells is then quantified by means of a colorimetric assay, the Microculture Tetrazolium Assay (J. Carmichael et al., Cancer Res., 47, 936–942, (1987)). The results are expressed as IC50, the concentration of cytotoxic agent which inhibits the proliferation of the treated cells by 50%.

[2] = system: Human KB-3-1 (bucal epidermoïde carcinoma) cell; assay: In vitro cytotoxicity on human KB-3-1 cells (procedure of Example 27)
Procedure: as §2

[3] = system: C38 adenocarcinoma of the colon; assay: Anti-tumour activity with respect to C38 adenocarcinoma of the colon in mice; format: in vivo; conditions: for T/C (tumor growth), C38: Table 3; for anti-tumour activity (% T/C): C38 s.c. in B6D2F1 mice, tumour volume
Procedure: Tumour fragments of C38 adenocarcinoma of the colon weighing approximately 30 mg were implanted under the skin of B6D2F1 mice (Iffa Credo, France) on day 0.
After growth of the tumour, the mice were divided into control (18 animals) and treated (6 or 7 animals) groups, which were homogeneous with respect to tumour size. The products were administered by the i.v. route once per week for 3 weeks (on days 10, 17 and 24), at their Maximum Tolerated Dose (MTD), MTD/2 and MTD/4. The tumours were measured twice a week and the tumour volumes were calculated according to the following formula: volume (mm^3)=length (mm)×breadth (mm^2)/2. The anti-tumour activity is expressed as % T/C:
[formula] V0 and Vt being the initial volume of the tumour and its volume at measurement time t, respectively.
The optimum dose is the dose giving the lowest T/C value without toxicity (early death or weight loss greater than 20%).
The procedure used in the anti-tumour activity with respect to C38 adenocarcinoma is the same as the procedure described in the present application at Example 28.

[4] = system: P388 (murine leukaemia); assay: Anti-tumour activity with respect to P388 leukaemia in mice; format: in vivo; conditions: P388 i.p. in B6D2F1 mice, products i.v. on day 1
Procedure: Line P388 (murine leukaemia) was supplied by the National Cancer Institute (Frederick, USA). The tumour cells (10^6 cells) were inoculated on day 0 into the peritoneal cavity of female B6D2F1 mice (Iffa Credo, France). Six mice weighing from 18 to 20 g were used in each test group. The products were administered by the intravenous route on day 1. The anti-tumour activity is expressed as % T/C: […]

[5] = system: human IGROV1 ovarian carcinoma; assay: Anti-tumour activity on IGROV1 ovarian carcinoma in nude mice; format: in vivo; conditions: IGROV1 i.p. in nude mice, 12.5 mg/kg i.v. days 4 and 14, optimal dose; median survival time
Procedure: (§1) The anti-tumour activity of the compounds against the human A549 non-small cell lung carcinoma was evaluated essentially as described (Kraus-Berthier, L., Jan, M., Guilbaud, N., Naze, M., Pierré, A., and Atassi, G. Histology and sensitivity to anticancer drugs of two human non-small cell lung carcinomas implanted in the pleural cavity of nude mice. Clinical Cancer Res., 6, 297–304, 2000). Briefly, 10^6 A549 cells were implanted through the chest wall into the left pleural space of nude mice in a volume of 100 μl. Compounds were administered i.v. at three doses on days 14 and 24 after tumor graft. Animal mortality was checked daily and the anti-tumour activity was expressed as T/C %=(median survival time of treated group/median survival time of control group)×100. Results given in table 3 are the highest T/C values obtained at the maximum non-toxic dose, i.e. the optimal dose.
The anti-tumour activity of the compounds against the human IGROV1 ovarian carcinoma was evaluated essentially as described (Burbridge, M. F., Kraus-Berthier, L., Naze, M., Pierré, A., Atassi, G. and Guilbaud, N. Biological and pharmacological characterization of three models of human ovarian carcinoma established in nude mice: use of the CA125 tumor marker to predict antitumor activity. Int. J. Oncol., 15, 1155–1162, 1999). […] The anti-tumour activity was evaluated as described above for A549 lung carcinoma.

[6] = system: human A549 non-small cell lung carcinoma; assay: Anti-tumour activity on A549 lung carcinoma in nude mice; format: in vivo; conditions: A549 in pleural space of nude mice, median survival time
Procedure: as §1

[7] = system: Murine leukaemia L1210
Procedure: as §2

[8] = system: Human KB-3-1 (bucal epidermoïde carcinoma) cell
Procedure: as §2

[9] = Mus musculus, L1210, read-out: IC50 (μM), Cytotoxicity on Murine L 1210 cells
[10] = Homo sapiens, KB 3-1, read-out: IC50 (μM), Cytotoxicity on Human KB-3-1 (bucal epidermoïde carcinoma) cell

Compound: CCN(CC)C(=O)O[C@@H]1c2c(cc(OC)c3c(=O)c4cc5ccccc5cc4n(C)c23)OC(C)(C)[C@@H]1OC(=O)N(CC)CC (racemic) [Example 23, (±)-cis-1-{[(Diethylamino)carbonyl]oxy}-6-methoxy-3,3,14-trimethyl-7-oxo-2,3,7,14-tetrahydro-1H-benzo[b]pyrano[3,2-h]acridin-2-yl diethylcarbamate]
- IC50 [1, 9]: 0.9 µM

Compound: Cn1c2cc3ccccc3cc2c(=O)c2c(OCCO)cc3c(c21)C=CC(C)(C)O3 [Example 1, 6(2-Hydroxyethoxy)-3,3,14-trimethyl-3,14-dihydro-7H-benzo[b]-pyrano[3,2-h]acridin-7-one]
- IC50 [2, 10]: 0.5 µM

Compound: COc1cc2c(c3c1c(=O)c1cc4ccccc4cc1n3C)[C@H](OC(=O)N(C)C)[C@H](OC(=O)N(C)C)C(C)(C)O2 [Example 11, (1S,2S)-1-{[(Dimethylamino)carbonyl]oxy}-6-methoxy-3,3,14-trimethyl-7-oxo-2,3,7,14-tetrahydro-1H-benzo[b]pyrano[3,2-h]acridin-2-yl dimethylcarbamate]
- T/C (tumor growth), C38 ([3]; C38, dose 25 mg/kg i.v.): 41%^a
- anti-tumour activity (% T/C) ([3]; i.v. days 10, 17 and 24, optimum dose of 25 mg/kg): 41%
- IC50 [2, 10]: 0.4 µM
- IC50 ([1]; Mus musculus, L1210, 48 h): 0.78 µM
- IC50 [1, 9]: 0.8 µM

Compound: COc1cc2c(c3c1c(=O)c1ccccc1n3C)C=CC(C)(C)O2 [acronycine, reference compound]
- anti-tumour activity (% T/C) ([3]; i.v. days 10, 17 and 24, optimum dose of 100 mg/kg): 27%
- T/C [4]: only marginally active

Compound: (±)-cis-1,2-Dipentenoyloxy-6-methoxy-3,3,14-trimethyl-2,3,7,14-tetrahydro-1H-benzo[b]pyrano[3,2-h]acridin-7-one [Example 7]
- T/C (tumor growth), C38 ([3]; C38, dose 25 mg/kg i.v.): 12%^a
- anti-tumour activity (% T/C) ([3]; i.v. days 10, 17 and 24, optimum dose of 12.5 mg/kg): 30%
- T/C (survival), IGROV1 [5]: 148%^b
- IC50 ([2]; read-out: IC50 (μM), Cytotoxicity on Human KB-3-1 (bucal epidermoïde carcinoma) cell, KB-3-1 cells, procedure of Example 27, Table 2): 0.14 µM
- IC50 ([1]; L1210 cells, exposure 4 doubling periods or 48 hours): 0.52 µM
- IC50 ([1]; read-out: IC50 (μM), Cytotoxicity on Murine L 1210 cells, L1210 cells, procedure of Example 27, Table 1): 0.5 µM
- T/C (survival), A549 ([6]; 12.5 mg/kg i.v. days 14 and 24, optimal dose): 218%^b

Compound: (±)-cis-1-Hydroxy-6-methoxy-2-pentenoyloxy-3,3,14-trimethyl-2,3,7,14-tetrahydro-1H-benzo[b]pyrano[3,2-h]acridin-7-one [Example 8]
- T/C (tumor growth), C38 ([3]; C38, dose 50 mg/kg i.v.): 15%^a
- IC50 [7]: 900 nM
- IC50 [8]: 100 nM
- T/C (survival), A549 ([6]; 25 mg/kg i.v. days 14 and 24, optimal dose): 340%^b
